Our source for the RP-LC retention time values is the METLIN SMRT retention time set (Domingo-Almenara et al. 2019).

The series is described as follows: gradient 5% acetonitrile 3 min, to 50% in 2 min, to 85% in 15 min, held 3 min, 100 µL/min. As to conditions: column: Zorbax Extend-C18 2.1 x 50 mm; eluents: water / acetonitrile, 0.1% formic acid. The method in brief:
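The mobile phases were water and acetonitrile, each with 0.1% formic acid, pumped at 100 μL/min through a Zorbax Extend-C18 column (2.1 × 50 mm, 1.8 μm). Pure standards were injected as mixtures of ~100 molecules and detected by a quadrupole time-of-flight mass spectrometer in positive and negative ionization mode. Retention time came from computationally picked adduct peaks, each inspected by hand.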
The compound `Cn1c(=O)n(CC(=O)Nc2ccc(F)cc2F)c(=O)c2cnc(-c3ccccc3)nc21` had an RP-LC retention time of 1000 s.
To `Cc1cc(C)cc(NC(=O)C2CCCN2S(=O)(=O)c2ccc3c(c2)CCCC(=O)N3)c1` (stereo not given) belongs 835 s; to `COc1cccc(NC(=O)C2CCCN(c3ncnc4c3nc3n4CCCCC3)C2)c1` (stereo not given), 781 s; to `O=C(Cn1ccn2nc(-c3ccccc3)c(CO)c2c1=O)N1CCc2ccccc21`, 848 s.
To `CCCN(C)c1nccn2c(=O)n(CC(=O)Nc3ccc(Cl)cc3F)nc12` belongs 735 s; to `CCOC(=O)c1cccc(NC(=O)Cn2c(=O)c(CCC(=O)NC3CCCC3)nc3ccccc32)c1`, 876 s.
The result for `COc1ccc(Cl)cc1NC(=O)c1cc(C(C)C)n2nccc2n1` reads 1310 s; that for `Cc1cc(C)cc(N2C=C(C(=O)N3CCOCC3)S(=O)(=O)c3ccc(F)cc32)c1`, 788 s.
Consider `CCSc1nnc(NC(=O)CCCn2nc(-c3ccc(OC)cc3)ccc2=O)s1`, for which the RP-LC retention time worked out at 730 s.
To `COc1cccc(OC)c1C(=O)Nc1ccc2c(c1)Sc1ncccc1C(=O)N2C(C)C` belongs 883 s.
As for `O=C(NC1CCN(c2cc(-c3ccc(F)cc3)[nH]n2)C1)c1ccncc1` (stereo not given), the RP-LC retention time was found to be 611 s.
Turning to `O=c1oc2cc(O)ccc2cc1-c1ccc(F)cc1`, the RP-LC retention time was 852 s.
The result for `CCOc1ccccc1NC(=O)CSc1cc(N2CCN(c3ccccc3OC)CC2)ncn1` reads 1160 s; that for `Cn1cc(S(=O)(=O)N2CCC(C(=O)Nc3nccs3)CC2)cc1C(=O)N1CCCC1`, 662 s; that for `COc1ccc(S(=O)(=O)CCC(=O)N2CCCC2c2nc(-c3ccc(C)cc3)no2)cc1` (stereo not given), 951 s.
The result for `Cc1ccccc1NC(=O)N1CCC2(C1)C(=O)N(C)c1ccccc12` (stereo not given) reads 772 s; that for `CCNc1cc(N2CCCC(CCC(=O)N3CCCC(CN4CCCC4)C3)C2)ncn1` (stereo not given), 571 s; that for `COc1ccc(S(=O)(=O)N2CCC(n3cnc4ccc(C)cc4c3=O)CC2)cc1OC`, 827 s.
To `Cc1cc(N(C)C)n2nc(CN3CCN(c4ccccc4C)CC3)nc2n1` belongs 633 s; to `Cc1nc2c(sc3nc(-c4ccccc4)ccc32)c(=O)n1CC(=O)Nc1ccc2c(c1)OCO2`, 985 s.
Compound `Cc1cc2nc(CSc3nnc(-c4cccc(Cl)c4)o3)cc(=O)n2o1` gave an RP-LC retention time of 792 s.
The result for `COc1ccc(S(=O)(=O)N2CC3CN(C(=O)C4CCCO4)CC(C2)O3)cc1` (stereo not given) reads 659 s; that for `O=C(CCC1CCCN(S(=O)(=O)c2ccccc2)C1)NCc1ccc(Cl)cc1` (stereo not given), 979 s; that for `CC1(C(=O)NCc2ccc(F)cc2)CCN(S(=O)(=O)c2ccc(Br)cc2)CC1`, 1000 s.
The result for `Cc1ccccc1-c1noc(-c2cccnc2N2CCN(C)CC2)n1` reads 670 s.
The result for `CCC1CCCCN1C(=O)c1cnc2nc(C)ccc2c1Nc1ccccc1` (stereo not given) reads 650 s.
`O=C(NCC1CCCO1)c1ccc(-c2ccc(N3CCCCC3)nc2)cc1` (stereo not given) gave an RP-LC retention time of 613 s.
Regarding `CN(C)c1ccc2c(c1)CN(C(=O)C1CC=CC1)CCO2`, the RP-LC retention time stood at 610 s.
The result for `Cc1ccc(N2C(=O)C3N=NN(Cc4nc(-c5ccc(C)c(C)c5)no4)C3C2=O)cc1` (stereo not given) reads 1110 s; that for `COc1ccc(OC)c(NC(=O)c2[nH]c3cc(C)sc3c2CN2CCOCC2)c1`, 705 s; that for `CC(C)Cn1c(CCNC(=O)c2cccc(F)c2)nc2cccnc21`, 709 s.
As for `CCCN1C(=O)COc2ccc(-c3noc(C(C)Oc4cccc(Cl)c4)n3)cc21` (stereo not given), the RP-LC retention time was found to be 1260 s.
In turn, `CC(=O)N1CCc2cc(N3CC(C(=O)Nc4ccc(F)cc4)CC3=O)ccc21` (stereo not given) yielded an RP-LC retention time of 699 s.
`Cc1cc2nc(C(=O)Nc3cccc(C#N)c3)cc(C)n2n1` yielded an RP-LC retention time of 901 s.
To `Cc1ccc(CNC(=O)C2(C)Cn3nc(C(=O)NCc4ccc(F)cc4)cc3C(=O)N2C)cc1` (stereo not given) belongs 783 s; to `O=C(NCc1ccc(C(F)(F)F)cc1)C1CCN(c2nnc(-c3ccccc3)o2)CC1`, 901 s.
For the compound `CCOC1CCN(C(=O)Nc2ccccc2C)CC1`, the RP-LC retention time is 732 s.
To `CCS(=O)(=O)Nc1ccc(C2(C(=O)NCc3cccc(C)c3)CCC2)cc1` belongs 869 s; to `Cc1ccc(NC(=O)Nc2ccc3c(c2)CCN3S(=O)(=O)c2ccccc2)cc1`, 995 s.
To `COc1ccc(S(=O)(=O)Cc2nc(-c3ccc(C)cc3)no2)cc1OC` belongs 960 s; to `Cc1cccc2nnc(N3CCN(C(=O)c4ccsc4)CC3)n12`, 614 s.
To `O=C(Nc1cccc2c1CCCC2)C1CCN(S(=O)(=O)c2ccc3[nH]c(=O)ccc3c2)CC1` belongs 808 s; to `CC(C)c1ccc(NC(=O)C2CCN(S(=O)(=O)c3cn(C(C)C)cn3)CC2)cc1`, 900 s.
The compound `C[C@H]1CN(C(=O)c2ccc(C#N)cc2)C[C@@H]1c1nc(-c2cccnc2)no1` registered an RP-LC retention time of 717 s.
To `CCC(CC)CN1CCC(n2c(C)cnc2-c2ccncc2)C1` (stereo not given) belongs 542 s; to `CCOC(=O)c1[nH]c2ccc(OC)cc2c1NC(=S)N1CCN(c2ccccn2)CC1`, 610 s.
To `O=C(c1csc(-c2ccc(N3CCCC3)nc2)n1)N1CCN(c2ccccn2)CC1` belongs 566 s; to `COc1ccc(-c2nc(CC3CCNC3)no2)cc1` (stereo not given), 607 s; to `CCc1ccc(CNC(=O)C2CCCN(c3ccc(=O)n(-c4ccc(OC)cc4)n3)C2)cc1` (stereo not given), 871 s.
To `COc1ccc(OC)c(CN2CCc3nc(N4CCOCC4)ncc3C2)c1` belongs 607 s; to `O=C(CN1C(=O)COc2cc(Cl)ccc21)NC1CC1`, 714 s.
The compound `O=c1c2ccc(Cl)cc2oc2cc(O)cc(O)c12` came in with an RP-LC retention time of 979 s.
On to `Cc1ccc(S(=O)(=O)Nc2nc3ccccc3nc2Nc2ccc3nsnc3c2)cc1`, for which the RP-LC retention time is 1220 s.
Regarding `COCC(=O)Nc1nc(-c2ccc3c(c2)N(C)C(=O)C(C)O3)cs1` (stereo not given), the RP-LC retention time came to 770 s.
Regarding `COc1cccc(-n2c(=O)c(C(=O)Nc3ccc(F)c(F)c3)c(O)c3cccnc32)c1`, the RP-LC retention time was found to be 1250 s.
The result for `CC(C)C(=O)Nc1ccc2ncnc(N3CCCC3)c2c1` reads 591 s; that for `COc1cccc(-c2ccnc3nc(-c4cccs4)nn23)c1`, 906 s.
The result for `CC(C)CNC(=O)C(=O)NCc1ccccn1` reads 552 s; that for `Cn1cc(C(=O)NCCc2ccccc2)c(S(=O)(=O)N2CCSCC2)n1`, 1030 s; that for `Nc1cc(C2CCN(S(=O)(=O)Cc3cccc(F)c3)CC2)no1`, 742 s.
`CCC(Oc1ccc(=O)n(-c2ccc(F)cc2)n1)C(=O)NCCC(C)C` (stereo not given) gave an RP-LC retention time of 804 s.
The compound `COC(=O)CNC(=O)N1CCCC1c1ccc(C)cc1` (stereo not given) gave an RP-LC retention time of 739 s.
The result for `CCOC(=O)c1ccc2c(=O)c(C(=O)OCC)c[nH]c2c1` reads 661 s; that for `CCc1noc(NC(C)=O)c1-c1ccc(C)c(S(=O)(=O)Nc2ccc(OC)c(Cl)c2)c1`, 1300 s.
The result for `Cc1cccc(NC(=O)N2CCCC(Cn3c(C4CC4)nc4cccnc43)C2)c1C` (stereo not given) reads 683 s; that for `CCCn1c(-c2cccc(C(=O)NCCC3=CCCCC3)c2)nc2cccnc21`, 935 s.
Regarding `O=C1[C@H]2CN(Cc3ccc(F)c(Cl)c3)C[C@H]2C(=O)N1Cc1ccc2c(c1)OCO2`, the RP-LC retention time was determined as 853 s.
The result for `Cc1ccc(NC(=O)N2CCc3cn(C)c4cccc(c34)C2)c(C)c1` reads 980 s; that for `Cn1ccnc1C(=O)N1CC(n2cc(C(=O)N3CCOCC3)nn2)C1`, 581 s; that for `Cc1ccc(N2CCN(C(=O)c3cn4c(n3)COCC4)CC2)cc1`, 651 s.
To `COc1ccccc1CNC(=O)CN1CCCC1=O` belongs 631 s; to `Cc1ccccc1CNC(=O)Cn1nc(C(=O)N2CCCC2)c2ccccc21`, 799 s.
To `CCN(CC)C(=O)C1Cn2cccc2C(=O)N1C` (stereo not given) belongs 606 s; to `Cc1cccc(N2C(=O)c3cccnc3C2CC(=O)N2CCN(c3ccccn3)CC2)c1` (stereo not given), 562 s; to `CO[C@H]1CN(C2CCN(Cc3cn(C(C)C)c4ccccc34)CC2)[C@H]1c1ccncc1`, 590 s.
For the compound `O=C(Cc1csc(SCc2ccncc2)n1)NCc1ccc2c(c1)OCO2`, the RP-LC retention time turned out to be 568 s.
For `CCc1ccc(S(=O)(=O)N2CCc3c(c(-c4nnc(-c5ccccc5F)o4)nn3C)C2)cc1`, the RP-LC retention time stood at 1040 s.
To `CC1=C(c2ccccc2)S(=O)(=O)N=C1N1CCCN(C(=O)c2ccccc2)CC1` belongs 697 s.
`Cc1ccc(C(=O)NCC(=O)N2CCCc3ccccc32)s1` came in with an RP-LC retention time of 830 s.
For the compound `CCN1C(=O)C(CC(=O)NCC(C)C)Sc2ncccc21` (stereo not given), the RP-LC retention time worked out at 689 s.
